Data reported in patent US20250282768A1 (Janssen Pharmaceutica NV, priority 2022, published 2025).

What follows are compounds tested on p-IKKa levels in L363 (NIK translocated multiple myeloma) cells (assay: Assay 2: Effect of compounds on p-IKKa levels in L363 (NIK translocated multiple myeloma) cells). Conditions: Homo sapiens, L-363, 6 h, read-out: Assay 2 IC50 (nM), p-IKKa (Ser 176/180) in BAFF stimulated L363 cells with MG132, 6 h; average if tested more than once.
Type: cell-based
Summary of the method: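 L363 cells incubated overnight ± 250 ng/ml BAFF, then 6 h at 37 °C with compound (0.3% DMSO) ± 10 μM MG132. Lysates assayed for p-IKKa (Ser176/180) by AlphaLISA SureFire. IC50 from sigmoidal fit of % inhibition normalized to BAFF/MG132-stimulated and unstimulated controls.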

| Structure (SMILES) | IC50 [nM] |
| --- | --- |
| CO[C@H](C)CNc1nccc(-c2cccc(-c3cc([C@]4(O)CCN(C)C4=O)on3)n2)n1 [Example 356, (R)-3-Hydroxy-3-(3-(6-(2-(((R)-2-methoxypropyl)amino)pyrimidin-4-yl)pyridin-2-yl)isoxazol-5-yl)-1-methylpyrrolidin-2-one] | 50 to 500 |
| CN1CC[C@@](O)(c2cc(-c3cccc(-c4ccnc(N[C@@H]5CCCC[C@@H]5O)n4)n3)no2)C1=O [Example 357, (R)-3-Hydroxy-3-(3-(6-(2-(((1R,2S)-2-hydroxycyclohexyl)amino)pyrimidin-4-yl)pyridin-2-yl)isoxazol-5-yl)-1-methylpyrrolidin-2-one] | > 500 |
| CN1CC[C@@](O)(c2cc(-c3cccc(-c4ccnc(NC[C@H]5CCO5)n4)n3)no2)C1=O [Example 358, (R)-3-Hydroxy-1-methyl-3-(3-(6-(2-((((R)-oxetan-2-yl)methyl)amino)pyrimidin-4-yl)pyridin-2-yl)isoxazol-5-yl)pyrrolidin-2-one] | > 500 |
| CN1CC[C@@](O)(c2cc(-c3cccc(-c4ccnc(NCCC(F)F)n4)n3)no2)C1=O [Example 359, (R)-3-(3-(6-(2-((3,3-Difluoropropyl)amino)pyrimidin-4-yl)pyridin-2-yl)isoxazol-5-yl)-3-hydroxy-1-methylpyrrolidin-2-one] | 50 to 500 |
| CN1CC[C@@](O)(c2cc(-c3cccc(-c4ccnc(NC[C@@H]5CCO5)n4)n3)no2)C1=O [Example 360, (R)-3-Hydroxy-1-methyl-3-(3-(6-(2-((((S)-oxetan-2-yl)methyl)amino)pyrimidin-4-yl)pyridin-2-yl)isoxazol-5-yl)pyrrolidin-2-one] | > 500 |
| CN1CC[C@@](O)(c2cc(-c3cccc(-c4ccnc(N[C@@H]5CC6CCC5O6)n4)n3)no2)C1=O (stereo partly drawn) [Example 361, (3R)-3-(3-(6-(2-(((cis)-7-Oxabicyclo[2.2.1]heptan-2-yl)amino)pyrimidin-4-yl)pyridin-2-yl)isoxazol-5-yl)-3-hydroxy-1-methylpyrrolidin-2-one] | 50 to 500 |
| CO[C@@H](C)CNc1nccc(-c2cccc(-c3cc([C@]4(O)CCN(C)C4=O)on3)n2)n1 [Example 362, (R)-3-Hydroxy-3-(3-(6-(2-(((S)-2-methoxypropyl)amino)pyrimidin-4-yl)pyridin-2-yl)isoxazol-5-yl)-1-methylpyrrolidin-2-one] | 50 to 500 |
| C[C@@H](Nc1nccc(-c2cccc(-c3cc([C@]4(O)CCN(C)C4=O)on3)n2)n1)c1ccccn1 [Example 363, (R)-3-Hydroxy-1-methyl-3-(3-(6-(2-(((R)-1-(pyridin-2-yl)ethyl)amino)pyrimidin-4-yl)pyridin-2-yl)isoxazol-5-yl)pyrrolidin-2-one] | 50 to 500 |
| CN1CC[C@@](O)(c2cc(-c3cccc(-c4ccnc(NCCF)n4)n3)no2)C1=O [Example 364, (R)-3-(3-(6-(2-((2-Fluoroethyl)amino)pyrimidin-4-yl)pyridin-2-yl)isoxazol-5-yl)-3-hydroxy-1-methylpyrrolidin-2-one] | 50 to 500 |
| CN1CC[C@@](O)(c2cc(-c3cccc(-c4ccnc(NC5CCN(CC(F)F)C5)n4)n3)no2)C1=O (stereo partly drawn) [Example 365, (3R)-3-(3-(6-(2-((1-(2,2-Difluoroethyl)pyrrolidin-3-yl)amino)pyrimidin-4-yl)pyridin-2-yl)isoxazol-5-yl)-3-hydroxy-1-methylpyrrolidin-2-one] | > 500 |
| COCC1CC(Nc2nccc(-c3cccc(-c4cc([C@]5(O)CCN(C)C5=O)on4)n3)n2)CO1 (stereo partly drawn) [Example 366, (3R)-3-Hydroxy-3-(3-(6-(2-((5-(methoxymethyl)tetrahydrofuran-3-yl)amino)pyrimidin-4-yl)pyridin-2-yl)isoxazol-5-yl)-1-methylpyrrolidin-2-one] | 50 to 500 |
| CN1CC[C@@](O)(c2cc(-c3cccc(-c4ccnc(NCc5ccn(C)n5)n4)n3)no2)C1=O [Example 367, (R)-3-Hydroxy-1-methyl-3-(3-(6-(2-(((1-methyl-1H-pyrazol-3-yl)methyl)amino)pyrimidin-4-yl)pyridin-2-yl)isoxazol-5-yl)pyrrolidin-2-one] | 50 to 500 |
| CN1CC[C@@](O)(c2cc(-c3cccc(-c4ccnc(NCc5cnn(C)c5)n4)n3)no2)C1=O [Example 368, (R)-3-Hydroxy-1-methyl-3-(3-(6-(2-(((1-methyl-1H-pyrazol-4-yl)methyl)amino)pyrimidin-4-yl)pyridin-2-yl)isoxazol-5-yl)pyrrolidin-2-one] | 50 to 500 |
| C[C@@H](Nc1nccc(-c2cccc(-c3cc([C@]4(O)CCN(C)C4=O)on3)n2)n1)c1ncc[nH]1 [Example 369, (R)-3-(3-(6-(2-(((R)-1-(1H-Imidazol-2-yl)ethyl)amino)pyrimidin-4-yl)pyridin-2-yl)isoxazol-5-yl)-3-hydroxy-1-methylpyrrolidin-2-one] | > 500 |
| C[C@H](Nc1nccc(-c2cccc(-c3cc([C@]4(O)CCN(C)C4=O)on3)n2)n1)c1ncc[nH]1 [Example 370, (R)-3-(3-(6-(2-(((S)-1-(1H-Imidazol-2-yl)ethyl)amino)pyrimidin-4-yl)pyridin-2-yl)isoxazol-5-yl)-3-hydroxy-1-methylpyrrolidin-2-one] | > 500 |
| CC(Nc1nccc(-c2cccc(-c3cc([C@]4(O)CCN(C)C4=O)on3)n2)n1)c1ncco1 (stereo partly drawn) [Example 371, (3R)-3-Hydroxy-1-methyl-3-(3-(6-(2-((1-(oxazol-2-yl)ethyl)amino)pyrimidin-4-yl)pyridin-2-yl)isoxazol-5-yl)pyrrolidin-2-one] | 50 to 500 |
| CC(Nc1nccc(-c2cccc(-c3cc([C@]4(O)CCN(C)C4=O)on3)n2)n1)c1cnco1 (stereo partly drawn) [Example 372, (3R)-3-Hydroxy-1-methyl-3-(3-(6-(2-((1-(oxazol-5-yl)ethyl)amino)pyrimidin-4-yl)pyridin-2-yl)isoxazol-5-yl)pyrrolidin-2-one] | 50 to 500 |
| CC(Nc1nccc(-c2cccc(-c3cc([C@]4(O)CCN(C)C4=O)on3)n2)n1)c1cocn1 (stereo partly drawn) [Example 373, (3R)-3-Hydroxy-1-methyl-3-(3-(6-(2-((1-(oxazol-4-yl)ethyl)amino)pyrimidin-4-yl)pyridin-2-yl)isoxazol-5-yl)pyrrolidin-2-one] | 50 to 500 |
| C[C@H](Nc1nccc(-c2cccc(-c3cc([C@]4(O)CCN(C)C4=O)on3)n2)n1)c1cccnc1 [Example 374, (R)-3-Hydroxy-1-methyl-3-(3-(6-(2-(((S)-1-(pyridin-3-yl)ethyl)amino)pyrimidin-4-yl)pyridin-2-yl)isoxazol-5-yl)pyrrolidin-2-one] | 50 to 500 |
| C[C@@H](Nc1nccc(-c2cccc(-c3cc([C@]4(O)CCN(C)C4=O)on3)n2)n1)c1cccnc1 [Example 375, (R)-3-Hydroxy-1-methyl-3-(3-(6-(2-(((R)-1-(pyridin-3-yl)ethyl)amino)pyrimidin-4-yl)pyridin-2-yl)isoxazol-5-yl)pyrrolidin-2-one] | 50 to 500 |
| C[C@H](Nc1nccc(-c2cccc(-c3cc([C@]4(O)CCN(C)C4=O)on3)n2)n1)c1ccccn1 [Example 376, (R)-3-Hydroxy-1-methyl-3-(3-(6-(2-(((S)-1-(pyridin-2-yl)ethyl)amino)pyrimidin-4-yl)pyridin-2-yl)isoxazol-5-yl)pyrrolidin-2-one] | 50 to 500 |
| CC(Nc1nccc(-c2cccc(-c3cc([C@]4(O)CCN(C)C4=O)on3)n2)n1)c1ncccn1 (stereo partly drawn) [Example 377, (3R)-3-Hydroxy-1-methyl-3-(3-(6-(2-((1-(pyrimidin-2-yl)ethyl)amino)pyrimidin-4-yl)pyridin-2-yl)isoxazol-5-yl)pyrrolidin-2-one] | > 500 |
| CC(Nc1nccc(-c2cccc(-c3cc([C@]4(O)CCN(C)C4=O)on3)n2)n1)c1cn(C)cn1 (stereo partly drawn) [Example 378, (3R)-3-Hydroxy-1-methyl-3-(3-(6-(2-((1-(1-methyl-1H-imidazol-4-yl)ethyl)amino)pyrimidin-4-yl)pyridin-2-yl)isoxazol-5-yl)pyrrolidin-2-one] | 50 to 500 |
| Cc1cc(C(C)Nc2nccc(-c3cccc(-c4cc([C@]5(O)CCN(C)C5=O)on4)n3)n2)n[nH]1 (stereo partly drawn) [Example 379, (3R)-3-Hydroxy-1-methyl-3-(3-(6-(2-((1-(5-methyl-1H-pyrazol-3-yl)ethyl)amino)pyrimidin-4-yl)pyridin-2-yl)isoxazol-5-yl)pyrrolidin-2-one] | 50 to 500 |
| Cc1cc([C@@H](C)Nc2nccc(-c3cccc(-c4cc([C@]5(O)CCN(C)C5=O)on4)n3)n2)no1 [Example 380, (R)-3-Hydroxy-1-methyl-3-(3-(6-(2-(((R)-1-(5-methylisoxazol-3-yl)ethyl)amino)pyrimidin-4-yl)pyridin-2-yl)isoxazol-5-yl)pyrrolidin-2-one] | 50 to 500 |
| Cc1cnc(C(C)Nc2nccc(-c3cccc(-c4cc([C@]5(O)CCN(C)C5=O)on4)n3)n2)o1 (stereo partly drawn) [Example 381, (3R)-3-Hydroxy-1-methyl-3-(3-(6-(2-((1-(5-methyloxazol-2-yl)ethyl)amino)pyrimidin-4-yl)pyridin-2-yl)isoxazol-5-yl)pyrrolidin-2-one] | 50 to 500 |
| Cc1cc(C(C)Nc2nccc(-c3cccc(-c4cc([C@]5(O)CCN(C)C5=O)on4)n3)n2)on1 (stereo partly drawn) [Example 382, (3R)-3-Hydroxy-1-methyl-3-(3-(6-(2-((1-(3-methylisoxazol-5-yl)ethyl)amino)pyrimidin-4-yl)pyridin-2-yl)isoxazol-5-yl)pyrrolidin-2-one] | 50 to 500 |
| C[C@@H](Nc1nccc(-c2cccc(-c3cc([C@]4(O)CCN(C)C4=O)on3)n2)n1)c1cnnn1C [Example 383, (R)-3-Hydroxy-1-methyl-3-(3-(6-(2-(((R)-1-(1-methyl-1H-1,2,3-triazol-5-yl)ethyl)amino)pyrimidin-4-yl)pyridin-2-yl)isoxazol-5-yl)pyrrolidin-2-one] | 50 to 500 |
| C[C@H](Nc1nccc(-c2cccc(-c3cc([C@]4(O)CCN(C)C4=O)on3)n2)n1)c1cnnn1C [Example 384, (R)-3-Hydroxy-1-methyl-3-(3-(6-(2-(((S)-1-(1-methyl-1H-1,2,3-triazol-5-yl)ethyl)amino)pyrimidin-4-yl)pyridin-2-yl)isoxazol-5-yl)pyrrolidin-2-one] | 50 to 500 |
